# The source made the active and inactive calls. No cut-off for these calls is given here.
# Tests used:
# [1] = target: NACHT, LRR and PYD domains-containing protein 3 (Mus musculus, UniProt Q8R4B8); assay: Inhibition of NLRP3 inflammasome in mouse J774.A1 cells assessed as inhibition of IL-1 beta secretion; assay type: cell-based
# [2] = Cytotoxicity against mouse J774.A1 cells assessed as cell viability; assay type: toxicity, cell-based; conditions: read-out: TC50 (the source's name)
# Mus musculus [3] = assay: Anti-inflammatory activity against LPS-induced peritonitis C57BL/6 mouse model assessed as inhibition of IL-1 beta level in serum at 25 to 100 mg/kg, IG by ELISA analysis; assay type: functional, organism-based; conditions: dose 25-100 mg/kg
# NLRP3 inflammasome = assay: Selectivity index, ratio of TC50 for mouse J774.A1 cells to IC50 for NLRP3 inflammasome in mouse J774.A1 cells; assay type: toxicity, cell-based; conditions: read-out: Selectivity Index
# [4] = target: NACHT, LRR and PYD domains-containing protein 3 (Mus musculus) (UniProt Q8R4B8); assay: Inhibition of NLRP3 inflammasome activation in LPS primed mouse J774.A1 cells assessed as decrease in IL-1 beta production preincubated with compound for 1 hr followed by nigericin stimulation and measured after 1 hr by ELISA method; assay type: cell-based; conditions: dose 1-5 µM, time 2.0 hrs
# Chain of NACHT, LRR and PYD domains-containing protein 3 (Mus musculus) (Q8R4B8 whole entry, the tested form may be a part): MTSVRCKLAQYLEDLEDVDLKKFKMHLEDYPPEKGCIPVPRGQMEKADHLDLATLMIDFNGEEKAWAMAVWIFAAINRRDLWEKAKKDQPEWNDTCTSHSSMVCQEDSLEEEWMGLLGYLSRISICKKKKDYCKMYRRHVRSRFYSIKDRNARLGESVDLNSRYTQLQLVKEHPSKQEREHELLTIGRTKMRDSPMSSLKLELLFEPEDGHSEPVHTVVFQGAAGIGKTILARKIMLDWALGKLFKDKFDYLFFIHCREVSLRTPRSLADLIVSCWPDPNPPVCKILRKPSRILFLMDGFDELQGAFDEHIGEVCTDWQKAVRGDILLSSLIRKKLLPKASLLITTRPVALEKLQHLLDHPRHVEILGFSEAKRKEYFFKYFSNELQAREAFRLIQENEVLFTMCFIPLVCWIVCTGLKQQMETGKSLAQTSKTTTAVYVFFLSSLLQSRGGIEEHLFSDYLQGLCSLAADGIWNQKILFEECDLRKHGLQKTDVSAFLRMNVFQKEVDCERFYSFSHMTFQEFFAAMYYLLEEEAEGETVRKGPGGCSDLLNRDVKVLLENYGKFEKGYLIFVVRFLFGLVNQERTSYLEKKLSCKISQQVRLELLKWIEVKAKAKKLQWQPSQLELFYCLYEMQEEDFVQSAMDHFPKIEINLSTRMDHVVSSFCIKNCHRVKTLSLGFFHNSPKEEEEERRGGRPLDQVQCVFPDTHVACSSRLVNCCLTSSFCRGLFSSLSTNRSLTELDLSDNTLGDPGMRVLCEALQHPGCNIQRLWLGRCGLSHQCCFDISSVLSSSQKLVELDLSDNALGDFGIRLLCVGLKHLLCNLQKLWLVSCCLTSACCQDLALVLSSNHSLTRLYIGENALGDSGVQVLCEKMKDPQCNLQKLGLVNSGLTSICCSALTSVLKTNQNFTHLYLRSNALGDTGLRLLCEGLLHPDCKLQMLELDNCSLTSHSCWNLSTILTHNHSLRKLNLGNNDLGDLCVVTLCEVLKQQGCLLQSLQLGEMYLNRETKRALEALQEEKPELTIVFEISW
# [5] = target: NACHT, LRR and PYD domains-containing protein 3 (Mus musculus) (UniProt Q8R4B8); assay: Inhibition of NLRP3 inflammasome activation in LPS primed mouse BMDM cells assessed as decrease in IL-1 beta production preincubated with compound for 1 hr followed by nigericin stimulation and measured after 1 hr by ELISA method; assay type: cell-based; conditions: dose 1-5 µM, time 2.0 hrs
# [6] = target: NACHT, LRR and PYD domains-containing protein 3 (Mus musculus) (UniProt Q8R4B8); assay: Inhibition of NLRP3 inflammasome activation in LPS primed mouse J774.A1 cells assessed as reduction in cleaved gasdermin-D at 1 to 5 uM preincubated with compound for 1 hr followed by nigericin stimulation and measured after 1 hr by ELISA method; assay type: cell-based; conditions: dose 1-5 µM, time 2.0 hrs
# [7] = target: NACHT, LRR and PYD domains-containing protein 3 (Mus musculus) (UniProt Q8R4B8); assay: Inhibition of NLRP3 inflammasome in LPS primed mouse J774.A1 cells assessed as inhibition of IL-1 beta secretion in cell supernatant at 1 to 5 uM preincubated with compound for 1 hr followed by nigericin stimulation and measured after 1 hr by Western blot analysis; assay type: cell-based; conditions: dose 1-5 µM, time 2.0 hrs
# [8] = target: NACHT, LRR and PYD domains-containing protein 3 (Mus musculus) (UniProt Q8R4B8); assay: Inhibition of NLRP3 inflammasome activation in LPS primed mouse J774.A1 cells assessed as reduction in lactate dehydrogenase at 1 to 5 uM preincubated with compound for 1 hr followed by nigericin stimulation and measured after 1 hr by ELISA method; assay type: cell-based; conditions: dose 1-5 µM, time 2.0 hrs
# J774.A1 [9] = assay: Inhibition of intracellular ROS generation in LPS primed mouse J774.A1 cells assessed as decrease in ROS positive cells at 5 uM pretreated for 1 hr followed by nigericin treatment for 1 hr by DCFH-DA staining based fluorescence microscopy (reference value: 52%); assay type: functional; parameters: scale not given: the % may be the effect or the level left; conditions: time 2 hrs
# J774.A1 [10] = assay: Inhibition of mitochondrial ROS production in LPS/nigericin stimulated mouse J774.A1 cells at 1 to 5 uM pretreated for 1 hr with compound and LPS followed by nigericin treatment for 1 hr by MitoSOX staining based immunofluorescence analysis; assay type: functional, cell-based; conditions: dose 1-5 µM, time 2.0 hrs
# J774.A1 [11] = assay: Inhibition of intracellular ROS generation in LPS primed mouse J774.A1 cells pretreated for 1 hr followed by nigericin treatment for 1 hr by DCFH-DA staining based fluorescence microscopy; assay type: functional, cell-based; conditions: dose 1-5 µM, time 2.0 hrs
# Mus musculus [12] = assay: Anti-inflammatory activity against LPS-induced peritonitis C57BL/6 mouse model assessed as inhibition of IL-1 beta level in peritoneal fluid at 25 to 100 mg/kg, IG by ELISA analysis; assay type: functional, organism-based; conditions: dose 25-100 mg/kg
# [13] = target: NACHT, LRR and PYD domains-containing protein 3 (Mus musculus) (UniProt Q8R4B8); assay: Inhibition of NLRP3 inflammasome in LPS primed mouse J774.A1 cells assessed as inhibition of caspase-1 maturation at 1 to 5 uM preincubated with compound for 1 hr followed by nigericin stimulation and measured after 1 hr by Western blot analysis; assay type: cell-based; conditions: dose 1-5 µM, time 2.0 hrs
# J774.A1 [14] = assay: Inhibition of intracellular ROS generation in LPS primed mouse J774.A1 cells assessed as decrease in ROS positive cells at 1 uM pretreated for 1 hr followed by nigericin treatment for 1 hr by DCFH-DA staining based fluorescence microscopy (reference value: 52%); assay type: functional; parameters: scale not given: the % may be the effect or the level left; conditions: time 2 hrs
# Chain of NACHT, LRR and PYD domains-containing protein 3 (Q8R4B8 whole entry, the tested form may be a part): as above
IC50 [1],SMILES,CC50 [2],also measured
5.21 µM,Cc1c(Br)oc2c1C(=O)C(=O)c1c-2ccc2c1CCCC2(C)C,> 100 µM,
5.15 µM,Cc1coc2c1C(=O)C(=O)c1c-2ccc2c1CCCC2(C)C [TANSHINONE IIA],> 100 µM,
> 40 µM,Cc1coc2c3ccc4c(c3c3ocnc3c12)CCCC4(C)C,> 100 µM,
9.11 µM,COc1cc(/C=C/C(=O)OC2CCC(C)(C)c3ccc4c(c32)C(=O)C(=O)c2c(C)coc2-4)cc(OC)c1OC (centres undefined),60.2 µM,
1.27 µM,Cc1coc2c1C(=O)C(=O)c1c-2ccc2c1C(OC(=O)CCCCC1CCSS1)CCC2(C)C (centres undefined),26.8 µM,
4.3 µM,Cc1c(S(=O)(=O)O)oc2c1C(=O)C(=O)c1c-2ccc2c1CCCC2(C)C [TANSHINONE IIA SULFONIC ACID],> 100 µM,

# Further lines, the molecule ahead of its results:
SMILES,IC50 [1],CC50 [2],also measured
Cc1c(-c2ccccc2)oc2c1C(=O)C(=O)c1c-2ccc2c1CCCC2(C)C,> 40 µM,> 100 µM,
CC(=O)OC1CCC(C)(C)c2ccc3c(c21)C(=O)C(=O)c1c(C)coc1-3 (centres undefined),1.25 µM,36.5 µM,
Cc1coc2c1C(=O)C(=O)c1c-2ccc2c1C(OC(=O)c1ccc(O)cc1)CCC2(C)C (centres undefined),2.57 µM,14.5 µM,
Cc1coc2c1C(=O)C(=O)c1c-2ccc2c1C(OC(=O)c1cc(Cl)ccc1Cl)CCC2(C)C (centres undefined),3.6 µM,19.7 µM,
Cc1coc2c1C(=O)C(=O)c1c-2ccc2c1C(OC(=O)c1cccc(O)c1)CCC2(C)C (centres undefined),5.53 µM,18.2 µM,
Cc1coc2c1C(=O)C(=O)c1c-2ccc2c1C(OC(=O)c1ccccc1O)CCC2(C)C (centres undefined),0.48 µM,30.8 µM,Activity (Mus musculus [3]): Active; selectivity ratio (NLRP3 inflammasome): 62.1; inhibition [4]: Dose-Dependent Effect; inhibition [5]: Dose-Dependent Effect; inhibition [6]: Active; inhibition [7]: Active; inhibition [8]: Active; Activity (J774.A1 [9]): 56%; inhibition (J774.A1 [10]): Active; inhibition (J774.A1 [11]): Dose-Dependent Effect; Activity (Mus musculus [12]): Active; inhibition [13]: Active; Activity (J774.A1 [14]): 60%
Cc1coc2c1C(=O)C(=O)c1c-2ccc2c1C=CCC2(C)C,0.61 µM,61.8 µM,

# From ChEMBL document CHEMBL5625275, “Design, synthesis and biological evaluation of tanshinone IIA derivatives as NLRP3 inflammasome inhibitors” (Bioorg Med Chem Lett, 2024)
